From article PMC4869678, “Synthesis and Evaluation of a 2,11‐Cembranoid‐Inspired Library” (Chemistry (Weinheim an Der Bergstrasse, Germany), 2016)
In brackets after ≈: the same amount, converted by molar mass.

What was measured:
[1] = Aqueous solubility by nephelometry; assay type: physicochemical; details: aqueous medium (not further specified), kinetic from dmso stock, measured by nephelometry
Text: (§1) Due to a lack of UV chromophore and/or poor mass spectrometry ionisation, nephelometry46 was used to measure the solubility. PAMPA (parallel artificial membrane permeability assay)47 was used to assess the permeability.

[2] = PAMPA (parallel artificial membrane permeability assay); assay type: in vitro ADME
Text: as §1

[3] = tested on: PC3 human prostate cancer cell line; experiment: NCI panel growth inhibition, PC3 line; assay type: cell-based; details: PC3, single concentration of 10 µM, 48 h, NCI screen, read-out: inhibition of proliferation
Description: A selection of fifteen of the cembranoid‐inspired compounds was screened against a panel of 60 cancer cell lines at the National Cancer Institute screening panel (see the Supporting Information).49 This cell‐based assay aims to discover compounds with a strong cytostatic or cytotoxic growth inhibition over 48 h. Unfortunately, only low levels (up to 20 %) of cell growth inhibition were seen when screened at a single concentration of 10 µM.

PC3 TEM cancer cells = experiment: Migration assay (Fluoroblok membrane, FCS chemotaxis); assay type: cell-based, human; details: 3‐ and 5‐fold GI50 concentrations, FCS-stimulated migration
Description: (§2) Figure 6 a) Concentration–response curve for the antiproliferative effect of compound 28 on PC3 cells in vitro 96 h assay. b) Compound 28 inhibiting the migration properties of PC3 TEM cancer cells. FCS=fetal calf serum.
Whereas cembranoid natural products may not be inherently cytotoxic, an appreciable number do display an ability to inhibit the migratory and invasive properties of cancer cells.50 The effect of compound 28 on a PC3‐based migratory assay was therefore determined.
Cells were seeded in 100μl medium into 96-well plates. After 36 hours, serial doubling dilutions of drug (or vehicle) were added to give the required dose range in sextuplicate across the plate. Cells were incubated for a further 96 hours. […] Absorbance at 570nm was measured using a SPECTRAmax 340PC plate reader.
(§3) Cells in standard tissue culture flasks were fluorescently labelled by incubation with 1umol/L CellTracker Green 5-chloromethylfluorescein diacetate (Invitrogen, Paisley) concomitant with serum starvation for two hours. Following trypsinisation cells were counted and added to the upper wells of 8um pore FluoroblokTM membrane inserts in 24-well companion plates (BD Biosciences, Franklin Lakes, NJ). […] Cells which successfully migrated to the lower surface of the filter were visualised using an inverted fluorescence

PC3 cells [4] = experiment: SRB antiproliferative concentration-response assay; assay type: cell-based; details: Homo sapiens, PC-3, in vitro 96 h assay, full dose response curve
Description: as §2
Cells were seeded in 100μl medium into 96-well plates. After 36 hours, serial doubling dilutions of drug (or vehicle) were added to give the required dose range in sextuplicate across the plate. Cells were incubated for a further 96 hours. The medium was then removed and cells were fixed by adding 50μl of 10% (w/v) trichloroacetic acid (TCA) for one hour at room temperature. The plates were gently washed by immersion in tap water three times then air dried. 50μl of 0.4% (w/v) SRB in 1% (v/v) acetic acid was added to each well for one hour. […] Absorbance at 570nm was measured using a SPECTRAmax 340PC plate reader.
as §3

[5] = tested on: Caco‐2 human intestinal cancer cells; experiment: Permeability across a Caco-2 monolayer; assay type: in vitro ADME
[6] = Permeability across a Caco-2 monolayer; assay type: in vitro ADME, human; details: human, read-out: permeability across a monolayer of Caco‐2 cells
PC3 cells [7] = details: 50 µM; cited from earlier work
[8] = tested on: L1210 mouse lymphocytic leukemia cells; parameters: method as in earlier work; details: in vitro; cited from earlier work
cancer cells = tested on: cancer cells; parameters: method as in PMID 20420415; details: 50 µM; cited from earlier work

In the case of `C=CCC1OC(COC(=O)C=CC)C2CC=CCC12` (stereo not drawn) [Compound 15], the solubility [1] is reported as 500 µM (≈ 131 µg/mL) and the permeability (Pe) [2] is reported as 25 ×10⁻⁶ cm/s.

For `O=C1CCC/C=C/C[C@@H]2O[C@H](CO1)[C@H]1CCCC[C@H]12` [Compound 28], the solubility [1] was 550 µM (≈ 145 µg/mL), the inhibition at 10 µM [3] was 17% and the “effect on cell migration” value (PC3 TEM cancer cells) was “reduction to near basal levels of migration”. For the same molecule, the GI50 (PC3 cells [4]) was 63 µM, the transporter efflux [5] was “no evidence of transporter efflux” and the Papp [6] was 16 ×10⁻⁶ cm/s. For the same molecule, the permeability (Pe) [2] was 52 ×10⁻⁶ cm/s.

`CC1(C)CCC(=O)OCC2OC1C1CCCCC21` (stereo not drawn) [Compound 65] showed a solubility [1] of 550 µM (≈ 139 µg/mL) and a permeability (Pe) [2] of over 150 ×10⁻⁶ cm/s.

`OC1CCC=CCC2OC1C1CCCCC21` (stereo not drawn) [Compound 76] gave a solubility [1] of 500 µM (≈ 111 µg/mL).

In the case of `C=C1CC[C@H](C(C)C)[C@@H]2[C@H]1[C@H]1C[C@](C)(O)[C@@H](O)CC[C@@](C)(O)[C@@H]2O1` [sclerophytin A], the effect on proliferation (PC3 cells [7]) is given as “no effect on proliferation”, the IC50 [8] is given as 0.003 µM and the inhibition of migration (cancer cells) is given as 85%.
